Consider 5 compounds from patent publication US4046904A, “Novel penicillin, and its preparation and use” (Sumitomo Chemical Company, Limited, priority 1975, dated 1977).

In one series the test system is Pseudomonas. To be noted: background statement; cited from earlier work.
For another series, the system named is Enterobacter aerogenes. Description: Median MIC, clinical isolates, agar-plate dilution (Table 1). Type of series: cell-based. As to conditions: Klebsiella aerogenes, 8 clinical isolates, sodium salt, read-out: Median minimum inhibitory concentration. The protocol:
(§1) Note: Compound (I) and Compound (A) were subjected to the test in the form of the sodium salt. The minimum inhibitory concentration (MIC) was determined using the agar-plate dilution method recommended by Japan Society of Chemotherapy.

The test system of another series is Escherichia. The description is as above. It counts as cell-based. To be noted: read-out: Median minimum inhibitory concentration. The protocol:
as §1

Series [1] relates to Klebsiella pneumoniae. The series is described as above. As to conditions: 26 clinical isolates, sodium salt, read-out: Median minimum inhibitory concentration. Type of series: cell-based. The protocol:
as §1

A further series deals with Proteus morganii. The series is described as above. Type of series: cell-based. As to conditions: Morganella morganii, 14 clinical isolates, sodium salt, read-out: Median minimum inhibitory concentration. The protocol: as §1
In another series the test system is Proteus vulgaris. The description is as above. Type of series: cell-based. As to conditions: 7 clinical isolates, sodium salt, read-out: Median minimum inhibitory concentration. The protocol: as §1
For series [2], the system named is Pseudomonas aeruginosa. Described as above. Type of series: cell-based. To be noted: 49 clinical isolates, sodium salt, read-out: Median minimum inhibitory concentration. The protocol:
as §1

The next series relates to Serratia. The series is described as above. To be noted: 6 clinical isolates, sodium salt, read-out: Median minimum inhibitory concentration. It counts as cell-based. The protocol:
as §1

Series [3] has as its system Staphylococcus aureus. Described as above. It counts as cell-based. To be noted: 37 clinical isolates, sodium salt, read-out: Median minimum inhibitory concentration. The protocol: as §1
Series [4] deals with Escherichia coli. Description: MIC, nutrient broth dilution (Table 2). Type of series: cell-based. To be noted: Escherichia coli strain NIHJ, sodium salt. The protocol:
(§2) Note: Compound (I), Compound (A) and Compound (B) were subjected to the test in the form of the sodium salt. For each test, eight male ICR-SLC strain mice were used at each dose level. MIC was determined by the nutrient broth dilution method. In determination of PD50, subcutaneous treatment was carried out twice, i.e. 1 and 4 hours after infection.
On the technique in general: Dilution methods test growth across graded concentrations, often in twofold steps.

The test system of series [5] is Klebsiella pneumoniae. Description: MIC, nutrient broth dilution (Table 2). Type of series: cell-based. To be noted: Klebsiella pneumoniae strain No. 6, sodium salt. The protocol:
as §2

Series [6] concerns Pseudomonas aeruginosa. Description: MIC, nutrient broth dilution (Table 2). Type of series: cell-based. The protocol: as §2
Series [7] deals with Escherichia coli. Description: Intraperitoneal infection in mice, median protective dose (Table 2). Type of series: in vivo. As to conditions: sc, E. coli strain NIHJ, male ICR-SLC mice, subcutaneous, 1 and 4 hours after infection, sodium salt, read-out: PD50. The protocol: as §2
For series [8], the system named is Klebsiella pneumoniae. The series is described as above. Type of series: in vivo. To be noted: sc, subcutaneous, 1 and 4 hours after infection, sodium salt, read-out: PD50. The protocol:
as §2

The subject of series [9] is Pseudomonas aeruginosa. The series is described as above. It counts as in vivo. To be noted: sc, subcutaneous, 1 and 4 hours after infection, sodium salt, read-out: PD50. The protocol: as §2
The test system of the next series is Proteus mirabilis. Description: MIC (Table 3). It counts as cell-based. As to conditions: Proteus mirabilis strain GN2425; sodium salt. An excerpt: The minimum inhibitory concentrations obtained with Compound (I) and Compound (C) against the following organisms representing 6 genera are shown in Table 3.
(§3) Note: Compound (I) and Compound (C) were subjected to the test in the form of the sodium salt.

The test system of series [10] is Staphylococcus aureus. Description: Median MIC, clinical isolates, agar-plate dilution (Table 4). Type of series: cell-based. To be noted: 37 strains, agar-plate dilution, sodium salt, read-out: Median minimum inhibitory concentration. The protocol:
(§4) Note: Compound (I) and Compound (C) were subjected to the test in the form of the sodium salt. MIC was determined using the agar-plate dilution method.

Series [11] concerns Streptococcus faecalis. The description is as above. Type of series: cell-based. As to conditions: Enterococcus faecalis, 23 strains, agar-plate dilution, sodium salt, read-out: Median minimum inhibitory concentration. The protocol: as §4
The subject of series [12] is Pseudomonas aeruginosa. Description: MIC, nutrient broth dilution (Table 5). It counts as cell-based. To be noted: Pseudomonas aeruginosa strain TS, sodium salt. The protocol: (§5) The relative activities of Compound (I) and Compound (C) against various intraperitioneal infections in mice evaluated by the minimum inhibitory concentrations and the means median protective doses (subcutaneously administered) are shown in Table 5.
(§6) Note: Compound (I) and Compound (C) were subjected to the test in the form of the sodium salt. For each test, five male ICR-SLC strain mice were used at each dose level. MIC was determined by the nutrient broth dilution method. In determination of PD50, subsutaneous treatment was carried out three times, i.e. 1, 3 and 5 hours after infection.

In series [13] the test system is Streptococcus faecalis. Description: MIC, nutrient broth dilution (Table 5). To be noted: Enterococcus faecalis, Streptococcus faecalis strain F10, sodium salt. It counts as cell-based. The protocol: as §5, §6
Series [14] concerns Klebsiella pneumoniae. Description: Intraperitoneal infection in mice, median protective dose (Table 5). It counts as in vivo. To be noted: sc, K. pneumoniae strain No. 1, male ICR-SLC mice, subcutaneous, 1, 3 and 5 hours after infection, sodium salt, read-out: PD50. The protocol:
as §5, §6

In series [15] the test system is Pseudomonas aeruginosa. Described as above. As to conditions: sc, P. aeruginosa strain TS, male ICR-SLC mice, subcutaneous, 1, 3 and 5 hours after infection, sodium salt, read-out: PD50. Type of series: in vivo. The protocol: as §5, §6
Series [16] has as its system Staphylococcus aureus. The description is as above. Type of series: in vivo. As to conditions: sc, S. aureus strain A24, male ICR-SLC mice, subcutaneous, 1, 3 and 5 hours after infection, sodium salt, read-out: PD50. The protocol: as §5, §6
For series [17], the system named is Streptococcus faecalis. The series is described as above. It counts as in vivo. As to conditions: Enterococcus faecalis, sc; S. faecalis strain F10; male ICR-SLC mice; subcutaneous, 1, 3 and 5 hours after infection; sodium salt; read-out: PD50. The protocol:
as §5, §6

Series [18] is described as follows: Protein-binding rate in human serum (Table 6). Type of series: in vitro ADME. To be noted: human, serum, sodium salt.
From the text: The following data are related to the pharmacokinetic profiles of Compound (I) compared with Compound (C).
as §3

Series [19] is described as follows: Serum level in mice after subcutaneous administration (Table 7). It counts as in vivo, ICR-SLC strain mice. To be noted: mouse, sc, subcutaneous 50 mg/kg, sodium salt. The protocol: The peak serum concentrations of Compound (I) and Compound (C) in ICR strain mice following subcutaneous administration at 50 mg/kg are shown in Table 7.
Note: Compound (I) and Compound (C) were subjected to the test in the form of the sodium salt. For the test, three male ICR-SLC strain mice were used. The bioassay was carried out according to the disc method using Bacillus subtilis.

A short description of series [20]: Urinary excretion rate in rats after intramuscular administration (Table 8). Type of series: in vivo, Wistar-HLA strain rats. As to conditions: rat, urine, im, 20 mg/kg, male rats, intramuscular 20 mg/kg, sodium salt. The protocol:
The urinary excretion rates of Compound (I) and Compound (C) following an intramuscular administration of 20 mg/kg in male Wistar-HLA strain rats are shown in Table 8.
as §3

The nature of series [21]: Acute toxicity in mice, intraperitoneal (Table 9). As to conditions: mouse, in vivo, ip.
From the text: The acute toxicity of Compound (I) and Compound (C) in ICR strain mice when administered by intraperitoneal route are shown in Table 9.
as §3

Molecules are shown by their SMILES. Converted amounts (≈) assume the structure as drawn.

`CC1(C)S[C@@H]2[C@H](NC(=O)[C@H](N)c3ccccc3)C(=O)N2[C@H]1C(=O)O` [Ampicillin]: in the series on Pseudomonas, the anti-Pseudomonas activity entry was “does not exert any appreciable anti-Pseudomonas activity”.

Turning to `CC1(C)S[C@@H]2[C@H](NC(=O)C(C(=O)O)c3ccccc3)C(=O)N2[C@H]1C(=O)O` (stereo partly shown) [Carbenicillin], the anti-Pseudomonas activity result in the series with Pseudomonas was “not sufficiently strong”.

For orientation: MIC means the smallest concentration in the dilution series that meets the test's criterion for growth inhibition. For the compound `CC1(C)S[C@@H]2[C@H](NC(=O)[C@H](NC(=O)c3cnccc3O)c3ccc(O)cc3)C(=O)N2[C@H]1C(=O)O` [Compound (A), 6-[D-2-(4-hydroxypyridine-3-carbonamido)-2-(p-hydroxyphenyl)acetamido]penicillanic acid, reference compound], the MIC50 with Enterobacter aerogenes came to 100 µg/mL; in the series with Escherichia, 14 µg/mL (≈ 28.8 µM); in the series with Klebsiella pneumoniae [1], 73 µg/mL; with Proteus morganii, 50 µg/mL; in the series with Proteus vulgaris, 115 µg/mL; with Pseudomonas aeruginosa [2] it was 5 µg/mL. Besides, the MIC50 in the series on Serratia is over 200 µg/mL; in the series with Staphylococcus aureus [3], 21 µg/mL. Further, the MIC in the series with Escherichia coli [4] amounted to 12.5 µg/mL; in the series with Klebsiella pneumoniae [5] it was 100 µg/mL; with Pseudomonas aeruginosa [6] (Pseudomonas aeruginosa strain NC-5, sodium salt), 6.25 µg/mL; in the series with Pseudomonas aeruginosa [6] (Pseudomonas aeruginosa strain T, sodium salt), 12.5 µg/mL. Besides, the ED50 with Escherichia coli [7] is 3 mg/kg; in the series with Klebsiella pneumoniae [8] (K. pneumoniae strain No. 1, male ICR-SLC mice) it was 100 mg/kg; with Klebsiella pneumoniae [8] (K. pneumoniae strain No. 6, male ICR-SLC mice), 120 mg/kg; in the series with Klebsiella pneumoniae [8] (K. pneumoniae strain No. 20, male ICR-SLC mice) it was over 150 mg/kg; in the series on Pseudomonas aeruginosa [9] (P. aeruginosa strain NC-5, male ICR-SLC mice), 60 mg/kg; with Pseudomonas aeruginosa [9] (P. aeruginosa strain T, male ICR-SLC mice), 51 mg/kg.

One may read the fraction unbound as the share of the substance not bound to proteins or other matrix. For orientation: LD50 means the dose expected to kill half of the subjects tested. Low readings indicate greater toxicity, high ones lower toxicity. With `CC1(C)S[C@@H]2[C@H](NC(=O)[C@H](NC(=O)c3cnc4cccnc4c3O)c3ccc(O)cc3)C(=O)N2[C@H]1C(=O)O` [Compound (C), 6-[D-2-(4-hydroxy-1,5-naphthyridine-3-carbonamido)-2-(p-hydroxyphenyl)acetamido]penicillanic acid, reference compound], the figures for the MIC in the series with Proteus mirabilis, in the series with Pseudomonas aeruginosa [12] and with Streptococcus faecalis [13] were 1.56 µg/mL, 3.13 µg/mL and 1.56 µg/mL, respectively. Moreover, the MIC50 in the series with Staphylococcus aureus [10] is 60 µg/mL; in the series on Streptococcus faecalis [11], 3.8 µg/mL. Also, the ED50 in the series on Klebsiella pneumoniae [14] was found to be 18 mg/kg; in the series with Pseudomonas aeruginosa [15], 15 mg/kg; in the series with Staphylococcus aureus [16] it was 32 mg/kg; in the series on Streptococcus faecalis [17], 6 mg/kg. The fraction unbound in [18] (Ultracentrifugation method) was 0.08; in [18] (Ultrafiltration method), 0.1. Moreover, the concentration at 0.5 h in [19] (1/2 hr.) turned out to be 32000 ng/mL. The concentration at 0.25 h in series [19] (1/4 hr.) is 44000 ng/mL. Besides, the concentration at 1 h in [19] (1 hr.) came to 8000 ng/mL. Further, the concentration at 2 h in [19] (2 hr.) was 5000 ng/mL. Moreover, the dose excreted at 6 h in [20] (0-6 hr.) worked out at 19.5%. The values for the dose excreted at 24 h in [20] (0-24 hr.) and in series [20] (6-24 hr.) were 20% and 0.5%, respectively. The same compound yielded an LD50 in [21] of 3100 mg/kg.

With `CC1(C)S[C@@H]2[C@H](NC(=O)C(c3ccccc3)S(=O)(=O)O)C(=O)N2[C@H]1C(=O)O` (stereo partly shown) [Sulfocillin], the anti-Pseudomonas activity entry with Pseudomonas is “not sufficiently strong”.
